Laboratory results: article PMC3288053 (PLoS ONE, 2012)

How the values were obtained:
CD45 = target: T1, CD45 (Homo sapiens, UniProt P08575); test: PTP enzyme inhibition assay (pNPP substrate); format: biochemical; details: PTPs 0.3 µM, pNPP 5 mM, 25°C; NI: No inhibition at 100 µM
T1 construct: pGEX2T-CD45_560–1256; GST (N); made in house; host or cells: E. coli BL21 (DE3)
Procedure: (§1) The enzymatic activities of the recombinant PTPs are measured at 25°C using pNPP as substrate. The initial velocities of enzymatic reactions are determined by continuously measuring the absorbance at 405 nm every 15 s using a microplate spectrophotometer (Bio-Rad). […] To determine the inhibition type, each concentration of Rut (0, 50 and 75 µM) is incubated with PTP1B (0.3 µM) in reaction buffer (50 mM HEPES, pH7.0, 1 mM EDTA, and 100 mM NaCl) for 10 min and the reactions are initiated by different concentrations of pNPP (0.5–10 mM). The inhibition type is determined using double-reciprocal plots. In determination of the selectivity of Rut against PTPs, the result is referred as no inhibition when 100 µM Rut inhibits no enzyme activity. The same reaction systems are designed for all PTPs including PTP1B.

LAR = target: T2, LAR (Homo sapiens, UniProt P10586); test: PTP enzyme inhibition assay (pNPP substrate); format: biochemical; details: read-out: IC50 LAR; PTPs 0.3 µM, pNPP 5 mM, 25°C; NI: No inhibition at 100 µM
T2 construct: pGEX2T-LAR1282–1888; GST (N); made in house; host or cells: E. coli BL21 (DE3)
T2 sequence (P10586 1301-1907 limits assumed): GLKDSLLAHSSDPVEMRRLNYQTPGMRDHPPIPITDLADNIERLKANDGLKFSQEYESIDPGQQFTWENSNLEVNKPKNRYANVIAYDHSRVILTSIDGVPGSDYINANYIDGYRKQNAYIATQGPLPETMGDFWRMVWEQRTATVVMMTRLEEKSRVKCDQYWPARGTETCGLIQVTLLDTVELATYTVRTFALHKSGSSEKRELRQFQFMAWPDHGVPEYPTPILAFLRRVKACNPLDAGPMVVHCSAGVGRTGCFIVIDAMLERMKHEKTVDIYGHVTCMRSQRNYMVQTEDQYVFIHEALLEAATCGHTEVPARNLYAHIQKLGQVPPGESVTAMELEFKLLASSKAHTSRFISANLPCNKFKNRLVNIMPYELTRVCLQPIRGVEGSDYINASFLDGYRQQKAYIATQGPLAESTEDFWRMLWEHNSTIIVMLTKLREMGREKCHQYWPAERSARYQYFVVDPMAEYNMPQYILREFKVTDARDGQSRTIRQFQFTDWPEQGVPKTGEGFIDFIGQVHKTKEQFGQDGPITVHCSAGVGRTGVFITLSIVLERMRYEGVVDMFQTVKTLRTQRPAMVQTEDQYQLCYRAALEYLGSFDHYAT
Procedure: as §1

PTP1B = target: T3, PTP1B (Homo sapiens, UniProt P18031); test: PTP enzyme inhibition assay (pNPP substrate); format: biochemical
T3 construct: pGEX4T-1-PTP1B1–321; GST (N); made in house; host or cells: E. coli BL21 (DE3)
T3 sequence (P18031 1-321): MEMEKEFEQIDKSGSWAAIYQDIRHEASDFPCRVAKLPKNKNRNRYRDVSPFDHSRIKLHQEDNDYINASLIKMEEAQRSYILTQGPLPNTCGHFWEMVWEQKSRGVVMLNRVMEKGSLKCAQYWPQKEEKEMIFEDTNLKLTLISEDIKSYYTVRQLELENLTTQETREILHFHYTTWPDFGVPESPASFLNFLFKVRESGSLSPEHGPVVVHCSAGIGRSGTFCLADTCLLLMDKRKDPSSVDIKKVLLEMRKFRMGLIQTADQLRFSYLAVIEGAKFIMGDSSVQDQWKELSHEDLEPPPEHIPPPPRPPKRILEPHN
Procedure: as §1

GLUT4 promoter = test: GLUT4 promoter-luciferase reporter assay in 3T3-L1 adipocytes; format: cell-based; details: pre-treated 24 hours
Procedure: (a) Chemical structure of (+)-Rutamarin. […] Green fluorescence represents the total GLUT4, and red fluorescence depicts the translocated GLUT4 to cell membrane. (d) Insulin (170 nM)-induced GLUT4 translocation of CHO-K1/GLUT4 cells treated with compound-2 (C2, 10 µM), pervanadate (Pervan, 100 µM) and Rut (5, 10, 20 µM) for 5 minutes. (e) Immunofluorescence with antibody against GLUT4 (green), DAPI (blue) in 3T3-L1 adipocytes. GLUT4 translocation is detected either in the insulin (17 nM) stimulated 3T3-L1 adipocytes for 5 minutes, or pre-treated with Rut (20 µM) for 8 hours and then stimulated with insulin (17 nM) for 5 minutes. (f) Rut potently stimulates GLUT4 promoter activity in 3T3-L1 adipocytes (20 µM, Rut was pre-treated in the cells for 24 hours. Reporter gene is GLUT4 promoter-luciferase plasmid together with Renilla luciferase expression vector as a control). (g) H^3-glucose uptake assay in fully differentiated 3T3-L1 adipocytes treated with C2 (10 µM) and different doses of Rut (5–25 µM). Treatment of Rut for 30 minutes improves the insulin (17 nM)-stimulated glucose uptake. (h) GLUT4 expression is determined by western blotting with an antibody against GLUT4 in 3T3-L1 adipocytes treated with Rut (20 µM) for 48 hours. Data are presented as means ± s.e.m (*P<0.05, **P<0.01) from three independent experiments.

SRC1_613–773 = target: T4, SRC1_613–773 (Homo sapiens, UniProt Q15788); test: SPR (Biacore) binding assay, control; details: SPR control experiment
T4 construct: The plasmid pET15b-SRC1_613–773 is constructed with NdeI-BamHI sites; His-tag (N); made in house; host or cells: E. coli BL21 (DE3)
T4 sequence (Q15788 613-773): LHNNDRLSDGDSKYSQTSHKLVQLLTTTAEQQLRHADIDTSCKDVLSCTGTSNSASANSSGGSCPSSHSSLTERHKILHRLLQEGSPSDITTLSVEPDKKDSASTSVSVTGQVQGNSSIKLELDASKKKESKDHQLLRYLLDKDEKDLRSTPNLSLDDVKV
Procedure: Binding affinities of Rut towards proteins are analyzed using SPR technology based Biacore 3000 instrument (GE Healthcare). In the assay, proteins are immobilized to CM5 chips using a standard amine-coupling procedure (Biacore manual). The proteins to be covalently bound to the chips are diluted in 10 mM sodium acetate buffer (pH4.5) to a final concentration of 0.10 mg/ml. Before experiments, baseline is equilibrated with a continuous flow of running buffer (10 mM HEPES, 150 mM NaCl, 3 mM EDTA, and 0.005% (v/v) surfactant P20, pH7.4) for 2 hours. Subsequently, Rut with a gradient of concentrations is injected to the channels at a flow rate of 20 µL/min for 60 seconds, followed by disassociation for 120 seconds. The 1∶1 Langmuir binding fitting model in BIAevaluation software version 3.1 (Biacore) is used to determine the equilibrium dissociation constants (K Ds) of compounds. For SRC1 recruitment assay, purified SRC1_613–773 is immobilized to a CM5 chip. Different concentrations of PPARγ-LBD or RXRα-LBD are injected to the channel at a flow rate of 20 µL/min for 60 s, followed by disassociation for 120 s. To further detect the effects of Rut on PPARγ-LBD/SRC1 or RXRα-LBD/SRC1 interactions, 1 µM PPARγ-LBD or RXRα-LBD is incubated with Rut (16.8–100 µM) for 1 hour, and then injected onto the chip.

PPARγ:RXRα = target: T5, PPARγ:RXRα (Homo sapiens, UniProt P19793+P37231); test: Transient transfection luciferase assay in HEK293 cells (PPRE); format: cell-based; details: HEK293, 24 h
T5 construct: expressed in transfected cells; host or cells: HEK293
T5 sequence (P37231 whole entry): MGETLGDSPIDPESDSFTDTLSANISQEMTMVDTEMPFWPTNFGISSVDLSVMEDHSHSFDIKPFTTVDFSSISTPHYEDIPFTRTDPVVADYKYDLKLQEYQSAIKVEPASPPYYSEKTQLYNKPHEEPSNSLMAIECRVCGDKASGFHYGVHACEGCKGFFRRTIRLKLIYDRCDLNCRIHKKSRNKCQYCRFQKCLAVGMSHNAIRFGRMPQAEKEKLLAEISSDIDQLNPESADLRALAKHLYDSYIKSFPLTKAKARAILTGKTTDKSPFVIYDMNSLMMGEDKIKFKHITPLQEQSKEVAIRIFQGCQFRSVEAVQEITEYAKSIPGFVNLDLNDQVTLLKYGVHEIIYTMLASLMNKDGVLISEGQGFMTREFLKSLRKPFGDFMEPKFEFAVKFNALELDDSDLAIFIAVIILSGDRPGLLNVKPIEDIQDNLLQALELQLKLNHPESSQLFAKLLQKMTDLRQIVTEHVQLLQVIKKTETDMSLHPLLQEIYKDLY
T5 sequence (P19793 whole entry): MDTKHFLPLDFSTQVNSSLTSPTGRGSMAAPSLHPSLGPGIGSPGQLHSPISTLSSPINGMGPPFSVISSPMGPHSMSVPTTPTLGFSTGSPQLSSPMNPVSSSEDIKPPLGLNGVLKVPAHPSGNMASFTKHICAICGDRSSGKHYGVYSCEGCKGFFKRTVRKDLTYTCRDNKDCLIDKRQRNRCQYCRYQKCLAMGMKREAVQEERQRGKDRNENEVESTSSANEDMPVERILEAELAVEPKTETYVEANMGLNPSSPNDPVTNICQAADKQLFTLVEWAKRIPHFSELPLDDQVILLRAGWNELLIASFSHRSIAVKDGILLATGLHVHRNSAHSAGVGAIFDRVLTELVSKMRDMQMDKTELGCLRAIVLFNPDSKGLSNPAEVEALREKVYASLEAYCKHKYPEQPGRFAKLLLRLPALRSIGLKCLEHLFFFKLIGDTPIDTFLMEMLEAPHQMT
Procedure: HEK293 cells are transiently transfected by Lipo2000 respectively with RXRα, PPARγ, FXR, and LXRα plasmids plus pGL3-RXRE luciferase vector and renilla luciferase vector for 5 hours. Cells are then incubated with indicated concentrations of compounds for another 24 h and finally lysed. Luciferase activities are measured using Dual Luciferase Assay System kit. Rut dose-dependently activates (a) RXRα:RXRα and (b) PPARγ:RXRα activities. Rut has no effects on (c) FXR: RXRα and (d) LXRα:RXRα activities. Data are presented as means ± s.e.m (*P<0.05, **P<0.01) from three independent experiments.
HEK293 cells are transfected with luciferase reporter plus Renilla luciferase vector and other plasmids if needed for 5 hours, and cells are then incubated with indicated concentrations of compounds for another 24 h. Finally cells are lysed and luciferase activities are measured using Dual Luciferase Assay System kit. The results are presented as the fold activation relative to untreated cells after normalization with Renilla luciferase values. Each experiment is repeated at least twice, with each sample analyzed in triplicates.

T1 sequence (P08575 610-1306 limits assumed): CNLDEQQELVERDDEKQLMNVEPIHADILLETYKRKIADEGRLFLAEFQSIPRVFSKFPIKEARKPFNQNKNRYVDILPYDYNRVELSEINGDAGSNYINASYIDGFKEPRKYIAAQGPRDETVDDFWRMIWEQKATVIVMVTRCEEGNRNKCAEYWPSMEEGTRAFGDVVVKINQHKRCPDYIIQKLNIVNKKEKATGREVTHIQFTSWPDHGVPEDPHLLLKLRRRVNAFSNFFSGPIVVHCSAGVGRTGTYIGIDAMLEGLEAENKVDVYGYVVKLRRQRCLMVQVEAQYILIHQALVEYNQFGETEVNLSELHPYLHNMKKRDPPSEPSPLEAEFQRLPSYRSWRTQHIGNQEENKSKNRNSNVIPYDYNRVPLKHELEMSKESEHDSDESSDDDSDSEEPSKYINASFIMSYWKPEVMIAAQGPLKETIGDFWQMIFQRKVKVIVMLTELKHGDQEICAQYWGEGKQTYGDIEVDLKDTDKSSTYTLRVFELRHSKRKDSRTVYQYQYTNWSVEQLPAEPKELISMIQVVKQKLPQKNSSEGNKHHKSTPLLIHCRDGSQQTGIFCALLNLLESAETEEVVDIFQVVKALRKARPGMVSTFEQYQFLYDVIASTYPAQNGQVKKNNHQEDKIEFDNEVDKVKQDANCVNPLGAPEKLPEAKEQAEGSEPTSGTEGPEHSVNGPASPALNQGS

Compound: C=CC(C)(C)c1cc2cc3c(cc2oc1=O)O[C@H](C(C)(C)OC(C)=O)C3 [(+)-Rutamarin]
- IC50 (CD45): > 100 µM
- IC50 (LAR): > 100 µM
- IC50 (PTP1B; PTPs 0.3 µM, pNPP 5 mM, 25°C, NI: No inhibition at 100 µM): 6.4 µM
- inhibition type (Lineweaver-Burk, double-reciprocal plots) (PTP1B; Rut 0, 50 and 75 µM, pNPP 0.5–10 mM): competitive inhibitor
- GLUT4 promoter activity (GLUT4 promoter): dose-dependently induce
- binding to SRC1 (SRC1_613–773): does not bind
- activity of PPAR-response element (PPRE) (PPARγ:RXRα): dose-dependently enhance
